Source: US8729109B2, “3-(4-(5-phenyl-1 ,2,4-oxadiazol-3-yl)phenoxy)propan-2-ol derivatives as sphingosine-1phosphate receptors modulators” (Allergan, Inc., priority 2011, dated 2014)

Experiments:
human S1P1 receptor = molecular target: T1, human S1P1 receptor (Homo sapiens, UniProt P21453); assay: GTP γ35S binding assay, S1P1 activity; assay type: biochemical; conditions: membranes of cells stably expressing S1P1 receptor, agonist potency
T1 construct: expressed in transfected cells; membranes used
T1 sequence (P21453 whole entry): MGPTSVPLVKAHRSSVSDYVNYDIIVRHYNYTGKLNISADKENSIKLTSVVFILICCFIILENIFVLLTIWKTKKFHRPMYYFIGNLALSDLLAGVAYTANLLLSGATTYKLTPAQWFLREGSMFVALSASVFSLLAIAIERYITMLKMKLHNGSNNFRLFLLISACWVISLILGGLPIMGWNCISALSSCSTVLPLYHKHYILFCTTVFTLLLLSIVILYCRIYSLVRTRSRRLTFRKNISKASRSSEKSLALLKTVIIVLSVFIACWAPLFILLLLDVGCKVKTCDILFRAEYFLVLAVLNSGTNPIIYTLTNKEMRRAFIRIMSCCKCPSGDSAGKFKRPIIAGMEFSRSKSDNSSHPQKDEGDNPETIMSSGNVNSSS
Protocol: Compounds were synthesized and tested for S1P1 activity using the GTP γ^35S binding assay. These compounds may be assessed for their ability to activate or block activation of the human S1P1 receptor in cells stably expressing the S1P1 receptor.
GTP γ^35S binding was measured in the medium containing (mM) HEPES 25, pH 7.4, MgCl2 10, NaCl 100, dithitothreitol 0.5, digitonin 0.003%, 0.2 nM GTP γ^35S, and 5 μg membrane protein in a volume of 150 μl. Test compounds were included in the concentration range from 0.08 to 5,000 nM unless indicated otherwise. Membranes were incubated with 100 μM 5′-adenylylimmidodiphosphate for 30 min, and subsequently with 10 μM GDP for 10 min on ice. Drug solutions and membrane were mixed, and then reactions were initiated by adding GTP γ^35S and continued for 30 min at 25° C. Reaction mixtures were filtered over Whatman GF/B filters under vacuum, and washed three times with 3 mL of ice-cold buffer (HEPES 25, pH 7.4, MgCl2 10 and NaCl 100). Filters were dried and mixed with scintillant, and counted for ^35S activity using a β-counter. Agonist-induced GTP γ^35S binding was obtained by subtracting that in the absence of agonist. Binding data were analyzed using a non-linear regression method. In case of antagonist assay, the reaction mixture contained 10 nM […] in the presence of test antagonist at concentrations ranging from 0.08 to 5000 nM.

lymphocytes in the blood = assay: Lymphopenia assay in mice; assay type: in vivo; conditions: female C57BL6 mice, 10 mg/Kg subcutaneously, after 96 h of drug application (FIG. 1)
Protocol: Lymphopenia Assay in Mice
Compound 1, 5-{3-[3-chloro-4-(2,3-dihydroxypropoxy)phenyl]-1,2,4-oxadiazol-5-yl}-2-isopropoxybenzonitrile, was prepared in a solution containing 3% (w/v) 2-hydroxy propyl β-cyclodextrin (HPBCD) and 1% DMSO to a final concentration of 1 mg/ml, and subcutaneously injected to female C57BL6 mice (CHARLES RIVERS) weighing 20-25 g at the dose of 10 mg/Kg. Blood samples were obtained by puncturing the submandibular skin with a Goldenrod animal lancet at 24, 48, 72, and 96 hrs post drug application. Blood was collected into microvettes (SARSTEDT) containing EDTA tripotassium salt. Lymphocytes in blood samples were counted using a HEMAVET Multispecies Hematology System, HEMAVET HV950FS (Drew Scientific Inc.). (Hale, J. et al Bioorg. & Med. Chem. Lett. 14 (2004) 3351).The results are presented in FIG. 1: the number of lymphocytes in the blood was reduced by Compound 1 after 96 h of drug application.

COP(=O)(O)OCC(O)COc1ccc(-c2noc(-c3ccc(OC(C)C)c(C#N)c3)n2)cc1Cl (centres unmarked) [Compound 3, 3-{2-chloro-4-[5-(3-cyano-4-isopropoxyphenyl)-1,2,4-oxadiazol-3-yl]phenoxy}-2-hydroxypropyl methyl hydrogen phosphate]
EC50 (human S1P1 receptor): 0.0204 µM

CC(C)Oc1ccc(-c2nc(-c3ccc(OCC(O)COP(=O)(O)O)c(Cl)c3)no2)cc1C#N (centres unmarked) [Compound 4, 3-{2-chloro-4-[5-(3-cyano-4-isopropoxyphenyl)-1,2,4-oxadiazol-3-yl]phenoxy}-2-hydroxypropyl dihydrogen phosphate]
EC50 (human S1P1 receptor): 4.58 µM

COP(=O)(OC)OCC(O)COc1ccc(-c2noc(-c3ccc(OC(C)C)c(C#N)c3)n2)cc1Cl (centres unmarked) [Compound 2, 3-{2-chloro-4-[5-(3-cyano-4-isopropoxyphenyl)-1,2,4-oxadiazol-3-yl]phenoxy}-2-hydroxypropyl dimethyl phosphate]
EC50 (human S1P1 receptor): 0.00288 µM

CC(C)Oc1ccc(-c2nc(-c3ccc(OCC(O)CO)c(Cl)c3)no2)cc1C#N (centres unmarked) [Compound 1, 5-{3-[3-chloro-4-(2,3-dihydroxypropoxy)phenyl]-1,2,4-oxadiazol-5-yl}-2-isopropoxybenzonitrile]
EC50 (human S1P1 receptor): 0.0103 µM
number of lymphocytes in the blood (lymphocytes in the blood): reduced
